In brackets after ≈: the same amount, converted by molar mass.
What was measured:
[1] = system: radicles of Orobanche crenata; set-up: method as in PMID 24044614; conditions: cited from earlier work
[2] = system: Orobanche cumana radicles; test: Orobanche cumana radicle growth bioassay; type: in vivo; conditions: for inhibition at 100 µg/mL: 168 h; for inhibition at 100 µg/mL / inhibition of radicle growth: 100 μg/mL, 7 days, relative to control (GR24 + 2% DMSO), ± standard error
Protocol: Allelopathic effects of each B. trixago extracts and isolated compounds were tested on Orobanche radicle growth according to previous protocols. Seeds of Orobanche cumana, were surface-sterilized by immersion in 0.5% (w/v) NaOCl and 0.02% (v/v) Tween 20, for 5 min, rinsed thoroughly with sterile distilled water, and dried in a laminar airflow cabinet. Approximately 100 seeds of Orobanche seeds were placed separately on 9 mm-diameter glass fiber filter paper disks (GFFP) (Whatman International Ltd., Maidstone, UK), moistened with 50 μL of sterile distilled water, and placed in incubators at 23 °C for 10 days inside Parafilm-sealed Petri dishes, to allow seed conditioning. Then, GFFP disks containing conditioned Orobanche seeds were transferred onto a sterile sheet of filter paper and transferred to new 9 cm sterile Petri dishes. Stock solutions of each B. trixago extract and isolated metabolite were respectively dissolved in dimethyl sulfoxide and subsequently individually diluted to 100 μg/mL using an aqueous solution of GR24 (10^−6 M). The final concentration of dimethyl sulfoxide was 2% in all test treatments. For each assay, 50 μL aliquots of each sample were applied to GFFP discs containing conditioned Orobanche seeds. Triplicate aliquots of a treatment only containing GR24 and 2% dimethyl sulfoxide was used as a control. Treated seeds were incubated in the dark at 23 °C for 7 days and radicle growth was determined for each GFFP disc, using a stereoscopic microscope (Leica S9i, Leica Microsystems GmbH, Wetzlar, Germany). For the characteristic of radicle growth, the value used was the average of 10 randomly selected radicles per GFFP disc. The percentage of radicle growth inhibition of each treatment was then calculated relative to the average radicle growth of control treatment.

[3] = set-up: method as in doi:10.1076/phbi.37.4.318.5808, PMID 12036030; conditions: cited from earlier work
[4] = set-up: method as in doi:10.1076/phbi.37.4.318.5808; conditions: cited from earlier work
[5] = system: Caenorhabditis elegans; test: C. elegans 24 h mortality test (ASTM E2172-01); type: in vivo
Protocol: (§1) The ecotoxicological tests were carried out on green freshwater algae Raphidocelis subcapitata, macrophyte Lepidium sativum, water flea Daphnia magna, nematode Caenorhabditis elegans and bacterium Aliivibrio fischeri to expand the range of endpoints due to differences in species sensitivity and exposure. Testing on R. subcapitata was performed using as endpoint the algal growth inhibition after 72 h of exposure and was based on ISO 8692:2012 [65]. The algal density was determined by spectrophotometric analysis (DR5000, Hach Lange GbH, Weinheim, Germany). Ecotoxicity tests were carried out in triplicate, at 25 ± 1 °C with constant illumination of 6700 lux. Testing on L. sativum was performed according to ISO 11269-1:2012 [66] considering germination and root elongation as endpoint after 72 h. Seeds (n = 10) were exposed in triplicate in Petri dishes and incubated at 25 ± 1 °C in darkness. Daphnia magna test was conducted according to UNI EN ISO 6341:2013 [67] and the endpoint evaluated was the immobilization after 24 h. Daphnids (less than 24 h old) were exposed to the samples at 20 ± 2 °C, in darkness without feeding. Testing on C. elegans was carried out, with a few modifications, according to the ASTM E2172-01 Standard Method (2014) using the 24 h mortality endpoint. The test was performed using age-synchronous adult nematodes exposed at 20 °C to compound 4, without feeding. […]

[6] = system: Raphidocelis subcapitata; test: Algal growth inhibition test (ISO 8692:2012); type: in vivo; conditions: 72 h
Protocol: as §1

[7] = system: Daphnia magna; test: Daphnia magna immobilization test (UNI EN ISO 6341:2013); type: in vivo; conditions: 24 h
Protocol: as §1

[8] = system: Wistar rats; set-up: method as in PMID 23195582; conditions: cited from earlier work
[9] = system: Aliivibrio fischeri; test: Bioluminescence inhibition test (ISO 11348-3:2007, Microtox); type: in vivo; conditions: 0.5 h, 30 min
Protocol: as §1

[10] = system: Lepidium sativum; test: whole plant or invertebrate; type: in vivo; conditions: 72 h, read-out: EC50 (germination and root elongation)
Protocol: as §1

## O=C(O)c1ccccc1 [Compound 1, benzoic acid]
[1]
  inhibitory activity on radicles: moderate inhibitory activity

## OCC1=CC[C@@H]2C=CO[C@@H](O[C@@H]3O[C@H](CO)[C@@H](O)[C@H](O)[C@H]3O)[C@H]12 [Compound 2, bartsioside]
[2]
  inhibition at 100 µg/mL: 61.1 ± 1.5%

## OCC1=C[C@@H](O)[C@@H]2C=CO[C@@H](O[C@@H]3O[C@H](CO)[C@@H](O)[C@H](O)[C@H]3O)[C@H]12 [Compound 3, aucubin]
[2]
  inhibition of radicle growth: no significant inhibitory activity
[3]
  DPPH scavenging activity: no DPPH scavenging activity
[4]
  antioxidant activity in β-carotene bleaching assay: inactive

## O=C(OCC1=C[C@@H](O)[C@@H]2C=CO[C@@H](O[C@@H]3O[C@H](CO)[C@@H](O)[C@H](O)[C@H]3O)[C@H]12)c1ccccc1 [Compound 4, melampyroside]
[5]
  EC50: 57.2 µg/mL (≈ 127 µM)
[2]; 100 µg/mL
  phytotoxicity observed on radicles: some degree of phytotoxicity observed as darkening
[2]
  inhibition at 100 µg/mL: 72.6%
[6]
  EC50: ≥ 100 µg/mL
[7]
  EC50: 33.3 µg/mL (≈ 73.8 µM)
[3]
  DPPH scavenging activity: no DPPH scavenging activity
[8]
  cardioactivity: cardioactive
[9]
  EC50: 76 µg/mL (≈ 169 µM)
[4]
  antioxidant activity in β-carotene bleaching assay: pro-oxidant
[10]
  EC50: ≥ 100 µg/mL

## C=C1[C@H]2[C@H](O[C@@H]3O[C@H](CO)[C@@H](O)[C@H](O)[C@H]3O)OC=C(C(=O)OC)[C@H]2C[C@@H]1O [Compound 5, gardoside methyl ester]
[2]
  inhibition of radicle growth: no significant inhibitory activity

## COC(=O)C1=CO[C@@H](O[C@@H]2O[C@H](CO)[C@@H](O)[C@H](O)[C@H]2O)[C@H]2[C@@H]1CC[C@]2(C)O [Compound 6, mussaenoside]
[2]
  inhibition at 100 µg/mL: 65.9 ± 2.9%
[3]
  DPPH scavenging activity: no DPPH scavenging activity
[4]
  antioxidant activity in β-carotene bleaching assay: antioxidant
